The subject of this experiment is rat pulmonary fibrosis model. Description: Rat pulmonary fibrosis model (bleomycin). Format: in vivo, Wistar rats. Particulars: 3 mg/kg·d tail vein, 14 days; for VEGFprotein in lung tissue / MMP-2 expression in lung tissue / MMP-9 expression in lung tissue / TIMP-1 expression in lung tissue / VEGF-mRNA in lung tissue: rat lung; for VEGFprotein in lung tissue: ELISA; for MMP-2 expression in lung tissue / MMP-9 expression in lung tissue / TIMP-1 expression in lung tissue: immunohistochemistry; for VEGF-mRNA in lung tissue: reverse transcription PCR; for CAT in peripheral blood / SOD in peripheral blood: rat peripheral blood. As to the method: (1) Reagents: bleomycin (4 mg/dose, Tianjin Taihe Pharmaceutical Co., Ltd.), mouse anti-mouse MMP monoclonal antibody (NEO Mark-ers Company), mouse anti-mouse TIMP-1 polyclonal antibody (Wuhan Shide Company), enzyme-linked immunosorbent assay (ELISA) kit (R&D Company of the United States), Quantscript RT Kit reverse transcription kit (Dalian TaKaRa Company).
The rats were, according to the number of body weight, divided into the blank control group, model group, and CLY series treatment group by random array method, with 12 rats in each group, half male and half female. The rats in each group were anesthetized by intraperitoneal injection of 2% pentobarbital sodium ([…]), fixed on the operating table, and injected by tracheotomy in the neck. The blank control group was injected with normal saline (1.25 ml/kg), and the model group and CLY treatment group were injected with 5 U/mL bleomycin solution (5 mg/kg), once a day, for 14 consecutive days. From one week after the establishment of the model, the corresponding CLY compound solution (3 mg/kg·d) was injected into the tail vein of each treatment group, and the same amount of normal saline was injected into the tail vein of the blank control group and the model group, once a day, for 14 consecutive days.
The peripheral venous blood of animals in each group was taken from the tail vein after modeling and 14 days after treatment, and the levels of superoxide dismutase (SOD) and catalase (CAT) in peripheral blood were measured. After taking blood from each group, the rats were sacrificed twice (after modeling and 14 days of treatment). The right lung tissue of the animals was stored in a refrigerator at −4° C. for detection of VEGF. The left lung tissue was routinely embedded in paraffin and sectioned. The expression of MMP subtype and TIMP-1 in the lung tissue of the rats was detected by immunohistochemistry. The right lung tissue was ground and homogenized, and the supernatant was taken after 3000 r/min high-speed centrifugation. The lung tissue VEGF protein was detected by ELISA, and the expression of VEGF-mRNA was detected by reverse transcription polymerase chain reaction.
A general note: An ELISA detects its analyte on a solid surface through an enzyme-linked reagent.

As for `CCN1CCC[C@@H](N(C(=O)c2ccc(-n3nnc4cccnc43)cc2)c2ncccc2Cl)C1` [CLY-2, (R)-4-(3H-[1,2,3]triazolo[4,5-b]pyridin-3-yl)-N-(3-chloropyridin-2-yl)-N-(1-ethylpiperidin-3-yl)benzamide], the “VEGFprotein in lung tissue” value stood at 51.18 ± 3.69 pg/mL, the “MMP-2 expression in lung tissue” value is on record as 2.51 ± 0.24, the “MMP-9 expression in lung tissue” value stood at 3.36 ± 0.25 and the “TIMP-1 expression in lung tissue” value came to 8.06 ± 0.49. In addition, the “VEGF-mRNA in lung tissue” value was 0.71 ± 0.12, the “CAT in peripheral blood” value is reported as 14.28 ± 1.39 kU/g and the “SOD in peripheral blood” value is given as 216.62 ± 13.55 U/ml.

As for `CN1CCC[C@@H](N(C(=O)c2ccc(-n3nnc4cccnc43)cc2)c2ncccc2Cl)C1` [CLY-1, (R)-4-(3H-[1,2,3]triazolo[4,5-b]pyridin-3-yl)-N-(3-chloropyridin-2-yl)-N-(1-methylpiperidin-3-yl)benzamide], the “VEGFprotein in lung tissue” value amounted to 52.16 ± 3.61 pg/mL, the “MMP-2 expression in lung tissue” value is reported as 2.43 ± 0.21, the “MMP-9 expression in lung tissue” value was found to be 3.32 ± 0.23 and the “TIMP-1 expression in lung tissue” value is listed as 7.82 ± 0.45. The “VEGF-mRNA in lung tissue” value came to 0.76 ± 0.11, the “CAT in peripheral blood” value came out at 14.13 ± 1.22 kU/g and the “SOD in peripheral blood” value is 214.58 ± 13.53 U/ml.

As to `O=C(c1ccc(-n2nnc3cccnc32)cc1)N(c1ncccc1Cl)[C@@H]1CCNC1` [CLY-8, (R)-4-(3H-[1,2,3]triazolo[4,5-b]pyridin-3-yl)-N-(3-chloropyridin-2-yl)-N-(pyrrolidin-3-yl)benzamide], the “VEGFprotein in lung tissue” value came out at 53.16 ± 3.62 pg/mL, the “MMP-2 expression in lung tissue” value stood at 2.44 ± 0.21, the “MMP-9 expression in lung tissue” value came to 3.31 ± 0.21 and the “TIMP-1 expression in lung tissue” value stood at 8.82 ± 0.53. The “VEGF-mRNA in lung tissue” value turned out to be 0.79 ± 0.13, the “CAT in peripheral blood” value is on record as 14.75 ± 1.22 kU/g and the “SOD in peripheral blood” value is listed as 220.86 ± 13.78 U/ml.

Turning to `NC1CCCC(N(C(=O)c2ccc(-n3nnc4cccnc43)cc2)c2ncccc2Cl)C1` (centres unmarked) [CLY-11], the “VEGFprotein in lung tissue” value worked out at 49.86 ± 3.58 pg/mL, the “MMP-2 expression in lung tissue” value is 2.52 ± 0.23, the “MMP-9 expression in lung tissue” value amounted to 3.53 ± 0.26 and the “TIMP-1 expression in lung tissue” value is 8.13 ± 0.38. The “VEGF-mRNA in lung tissue” value is listed as 0.76 ± 0.13, the “CAT in peripheral blood” value turned out to be 13.96 ± 1.36 kU/g and the “SOD in peripheral blood” value is 216.48 ± 13.16 U/ml.

`O=C(c1ccc(-c2ccccc2Cl)cc1)N(c1ncccc1Cl)[C@@H]1CCCNC1` [CLY-36]: the “VEGFprotein in lung tissue” value turned out to be 53.87 ± 3.73 pg/mL, the “MMP-2 expression in lung tissue” value turned out to be 2.59 ± 0.23, the “MMP-9 expression in lung tissue” value is given as 3.46 ± 0.25 and the “TIMP-1 expression in lung tissue” value is 7.63 ± 0.52. Further, the “VEGF-mRNA in lung tissue” value is listed as 0.83 ± 0.13, the “CAT in peripheral blood” value came to 13.26 ± 1.26 kU/g and the “SOD in peripheral blood” value is on record as 221.76 ± 13.57 U/ml.

These data come from patent US20240300945A1, “CLY SERIES COMPOUND, PREPARATION METHOD THEREFOR AND USE THEREOF IN PREPARATION OF DRUGS” (NANJING WELLBEST PHARMACEUTICAL CO., LTD, priority 2021, published 2024).
